Source: patent publication US20180021307A1, “Combination Treatment” (UCB Biopharma SPRL, priority 2015, published 2018)

Columns and labels:
6 Hz seizures = details: determined in the anticonvulsant drug screening program of NINDS; cited from earlier work
[1] = tested on: secondarily generalized seizures in fully amygdala-kindled rats; experiment: Amygdala kindling in rats; format: in vivo; details: for Protection n/N / Seizure score Mean ± SEM: oral; for Seizure score Mean ± SEM: Racine's scale
anti-convulsive effect = details: published values; cited from earlier work
6 Hz-induced seizures = experiment: 6 Hz seizure test in mice with isobolographic analysis; format: in vivo; details: for ED50add ± SEM: drug administered alone, i.p., 30 min before the test, NMRI mice; for anticonvulsant effects against 6 Hz seizure: mice
Method: According and Deckers et al. (2000) an isobolographic method used and evaluate interactions among AEDs is considered and be the optimal method for detecting synergy, additivity or antagonism among AEDs in animal models of epilepsy, such as the 6 Hz seizure model in mice. For isobolographic analysis, the experimental (EDmix) and theoretical additive (EDadd) ED50 values are determined from the dose-response curves of combined drugs. ED50 is defined as a dose of a drug protecting 50% of the animals against 6 Hz-induced seizures. ED50mix is an experimentally determined total dose of the mixture of two component drugs, which were administered in the fixed-ratio combination sufficient for a 50% protective effect. Conversely, ED50add represents a total additive dose of two drugs (calculated from the line of additivity), theoretically providing 50% protection against seizures.
The term “interaction index a” refers and the ratio of ED50mix/ED50add. This ratio seems and be a good describer of the strength of interaction between two AEDs in isobolographic analysis (Luszczki et al., 2003; Berenbaum, 1989; Tallarida et al., 1999; Tallarida, 2001, 2002). If ED50mix=ED50add, then α=1. Small derivations of a from 1 may not be considered as significant. If a is smaller than 0.7, this may indicate a synergistic effect. If the index is larger than 1.3, this may indicate an antagonistic effect, and if the index is in between this may indicate purely additive interaction (Luszczki et al., 2003; Kerry et al., 1975; Bourgeois, Wad, 1984, 1988; Bourgeois, 1988).
According and Deckers et al. (2000) an isobolographic method is used to evaluate interactions among AEDs and it is considered to be the optimal method for detecting synergy, additivity or antagonism among AEDs in animal models of epilepsy. The 6 Hz seizure model was performed as previously described (Kaminski et al., 2004). Briefly, mice were stimulated through corneal electrodes connected to an electrical stimulator (ECT Unit 5780, Ugo-Basile, Comerio, Italy) delivering a constant current (0.2 ms duration monopolar rectangular pulses at 6 Hz for 3 s). A drop of saline containing 0.4% oxybuprocaine hydrochloride (Unicaine, Thea, France) was applied on the eyes before stimulation and provide local anesthesia and ensure optimal current conductivity. During the stimulation, each mouse was manually restrained then gently released into the observation cage (38×26×14 cm) immediately after the current application. The seizures were often preceded by a brief period (˜2-3 s) of locomotor agitation (running and jumping). […] The main seizure endpoint was the duration of the immobility. Mice resuming normal behavior within 7 s after the end of the stimulation were considered as not displaying seizure behavior.
The experiments were performed on adult male NMRI mice (Charles River, France) weighing between 24 and 36 g. The mice were kept in colony cages with free access and food and water, under standard laboratory conditions with natural light-dark cycle. After 1 week adaptation the animals were randomly assigned and experimental groups consisting of ten mice. Each mouse was used only once. All experiments were performed between 9 am and 4 pm. Procedures involving animals and their care were conducted in accordance with current European Community regulations.
Fresh drug solutions were prepared ex tempore on each day of experimentation. These pretreatment times before testing of BRV/LCM were based on information about their biologic activity from the literature.
The isobolographic analysis is based on a comparison of equieffective drug doses. In the present study, interactions between drugs, as regards their anticonvulsant efficacy against 6 Hz seizure test were evaluated isobolographically according and the procedure elaborated by Tallarida (1992); Porreca et al. (1990); Luszczki et al. (2006). […]

[2] = clinical population pharmacokinetic analysis; cited from earlier work
[3] = 20 mg/kg alone, 1 h before stimulation, protected against secondarily generalized seizures
[4] = 40 mg/kg alone, 1 h before stimulation
[5] = 20 mg/kg alone, 1 h before stimulation

Structure (SMILES) | ED50 (6 Hz seizures) [mg/kg] | Protection n/N [1, 3] | Protection n/N [1, 4] | Protection n/N ([1]; 60 mg/kg alone, 1 h before stimulation) | Seizure score Mean ± SEM [1, 5] | Seizure score Mean ± SEM ([1]; 40 mg/kg alone) | Seizure score Mean ± SEM ([1]; 60 mg/kg alone) | effect on the protection of animals against secondarily generalized seizures or seizure score ([1]; alone, 20, 40 and 60 mg/kg) | ED50 (anti-convulsive effect) | ED50 (6 Hz-induced seizures; Mus musculus, protection of mice against 6 Hz seizures, drug alone) [mg/kg] | ED50add ± SEM (6 Hz-induced seizures) [mg/kg] | anticonvulsant effects against 6 Hz seizure (6 Hz-induced seizures; drug alone) | anticonvulsant effects against 6 Hz seizure (6 Hz-induced seizures; drug alone, listed as LCM) | effect on the protection of animals against secondarily generalized seizures or seizure score ([1]; alone, 20 or 40 mg/kg) | effect on plasma levels of the other drug [2]
COC[C@@H](NC(C)=O)C(=O)NCc1ccccc1 [Lacosamide, R-2-acetamido-N-benzyl-3-methoxypropionamide] | 9.9 | 0/8 | 1/8 | 0/8 | 4.75 ± 0.16 | 4.38 ± 0.50 | 4.38 ± 0.26 | did not have any significant effect | about 280 mg/day | 8.8 | 8.8 ± 1.1 | dose-dependent anticonvulsant effects | fully protected | – | –
CCC[C@@H]1CC(=O)N([C@@H](CC)C(N)=O)C1 [Brivaracetam, (2S)-2-((4R)-2-oxo-4-n-propyl-1-pyrrolidinyl) butanamide] | – | 1/8 | 1/8 | – | 4.25 ± 0.41 | 4.63 ± 0.38 | – | – | about 50 mg/day | – | 14.2 ± 1.1 | dose-dependent anticonvulsant effects | – | did not produce any significant effect | no evidence for any effect
